Data reported in ChEMBL document CHEMBL1201862, “PubChem BioAssay data set” (2004).
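Protocol summary: plate cells (96-well), add compound at 5 concentrations, incubate 48 h, interpolate endpoints linearly. GI50 is the concentration that inhibits growth by half.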 Active and inactive are the calls of the source. Rule as the data show it: active = GI50 up to about 1.1 µM and inactive = higher.

Key:
Assay in all cases: NCI tumour cell line growth inhibition, 48 h
KM12 = tested on: KM12
DU-145 = tested on: DU-145
EKVX = tested on: EKVX
UO-31 = tested on: UO-31
RPMI-8226 = tested on: RPMI-8226
UACC-257 = tested on: UACC-257
SK-OV-3 = tested on: SK-OV-3
OVCAR-4 = tested on: OVCAR-4
HOP-92 = tested on: HOP-92
HOP-62 = tested on: HOP-62
HCT-116 = tested on: HCT-116
MOLT-4 = tested on: MOLT-4
HL-60 = tested on: HL-60
MDA-MB-435 = tested on: MDA-MB-435
Hs-578T = tested on: Hs-578T
Malme-3M = tested on: Malme-3M
MDA-MB-231 = tested on: MDA-MB-231
A498 = tested on: A498
NCI-H460 = tested on: NCI-H460

SMILES	GI50 (KM12)	GI50 (DU-145)	GI50 (EKVX)	GI50 (UO-31)	GI50 (RPMI-8226)	GI50 (UACC-257)	GI50 (SK-OV-3)	GI50 (OVCAR-4)	GI50 (HOP-92)	GI50 (HOP-62)	GI50 (HCT-116)	GI50 (MOLT-4)	GI50 (HL-60)	GI50 (MDA-MB-435)	GI50 (Hs-578T)	GI50 (Malme-3M)	GI50 (MDA-MB-231)	GI50 (A498)	GI50 (NCI-H460)
CC(C)(C)c1cc(C(=O)/C=C/c2cc[nH]n2)cc(C(C)(C)C)c1O	2.29 µM (inactive)	2.56 µM (inactive)	13.4 µM (inactive)	1.76 µM (inactive)	1.06 µM (active)	3.24 µM (inactive)	15.7 µM (inactive)	6.4 µM (inactive)	2.21 µM (inactive)	2.86 µM (inactive)	2.43 µM (inactive)	2.61 µM (inactive)	2.23 µM (inactive)	2.77 µM (inactive)	2.57 µM (inactive)	7.29 µM (inactive)	1.91 µM (inactive)	2.17 µM (inactive)	3.72 µM (inactive)
O=C(N/N=C1/C(=O)c2c3ccccc3cc3cccc1c23)c1ccccc1	16.7 µM (inactive)	4.49 µM (inactive)	75.7 µM (inactive)	30.9 µM (inactive)	> 80.4 µM (inactive)	> 62.1 µM (inactive)	31.8 µM (inactive)	20.8 µM (inactive)	51.9 µM (inactive)	19.5 µM (inactive)	30.8 µM (inactive)	> 62.7 µM (inactive)	> 68.9 µM (inactive)	25.9 µM (inactive)	40.6 µM (inactive)	33.5 µM (inactive)	42.4 µM (inactive)	22.1 µM (inactive)	16.9 µM (inactive)
Cc1cc(C)n2nc3nc(N)c(C#N)c(-c4ccccc4)c3c2n1	> 100 µM (inactive)	> 100 µM (inactive)	> 100 µM (inactive)	> 100 µM (inactive)	> 100 µM (inactive)	> 100 µM (inactive)	> 100 µM (inactive)	> 100 µM (inactive)	> 100 µM (inactive)	> 100 µM (inactive)	> 100 µM (inactive)	> 100 µM (inactive)	> 100 µM (inactive)	> 100 µM (inactive)	> 100 µM (inactive)	> 100 µM (inactive)	> 100 µM (inactive)	> 100 µM (inactive)	> 100 µM (inactive)
N#Cc1c(/C=C/c2ccccc2)c2c([nH]c1=S)CCCCC2	75.5 µM (inactive)	> 100 µM (inactive)	> 100 µM (inactive)	> 100 µM (inactive)	> 100 µM (inactive)	> 100 µM (inactive)	> 100 µM (inactive)	> 100 µM (inactive)	> 100 µM (inactive)	> 100 µM (inactive)	> 100 µM (inactive)	> 100 µM (inactive)	> 100 µM (inactive)	> 100 µM (inactive)	> 100 µM (inactive)	> 100 µM (inactive)	> 100 µM (inactive)	> 100 µM (inactive)	4.9 µM (inactive)
[N-]=[N+]=CC(=O)C1CCCN1C(=O)c1ccccc1 (stereo not drawn)	> 10 µM (inactive)	> 10 µM (inactive)	> 10 µM (inactive)	> 10 µM (inactive)	> 10 µM (inactive)	> 10 µM (inactive)	> 10 µM (inactive)	> 10 µM (inactive)	> 10 µM (inactive)	> 10 µM (inactive)	> 10 µM (inactive)	> 10 µM (inactive)	> 10 µM (inactive)	> 10 µM (inactive)	> 10 µM (inactive)	> 10 µM (inactive)	> 10 µM (inactive)	> 10 µM (inactive)	> 10 µM (inactive)
COc1ccc(C2NC3=C(CCCC3)C3(C#N)C(=O)N=C(N)C23C#N)cc1 (stereo not drawn)	> 100 µM (inactive)	> 100 µM (inactive)	> 100 µM (inactive)	> 100 µM (inactive)	> 100 µM (inactive)	> 100 µM (inactive)	> 100 µM (inactive)	> 100 µM (inactive)	> 100 µM (inactive)	> 100 µM (inactive)	> 100 µM (inactive)	> 100 µM (inactive)	> 100 µM (inactive)	> 100 µM (inactive)	> 100 µM (inactive)	> 100 µM (inactive)	> 100 µM (inactive)	> 100 µM (inactive)	> 100 µM (inactive)
CC(C)NCCCNc1c2ccccc2nc2cccc([N+](=O)[O-])c12	0.0169 µM (active)	0.0065 µM (active)	0.0177 µM (active)	0.123 µM (active)	0.00219 µM (active)	0.0445 µM (active)	0.0566 µM (active)	0.00438 µM (active)	0.00389 µM (active)	0.0279 µM (active)	0.0262 µM (active)	0.00211 µM (active)	0.013 µM (active)	0.0103 µM (active)	0.0383 µM (active)	0.0133 µM (active)	0.0132 µM (active)	0.0164 µM (active)	0.00227 µM (active)
